Test results reported in ChEMBL document CHEMBL4052645, “Discovery of potent and efficacious pyrrolopyridazines as dual JAK1/3 inhibitors” (Bioorg Med Chem Lett, 2017).

Key:
[1] = target: Serine/threonine-protein kinase BRSK2 (Homo sapiens) (UniProt Q8IWQ3); assay: Inhibition of wild-type human full length BRSK2 (M1 to L674 residues) expressed in bacterial expression system assessed as residual activity at 50 nM by Kinomescan method relative to control
[2] = target: Aurora kinase B (Homo sapiens) (UniProt Q96GD4); assay: Inhibition of wild-type human partial length AURB (D25 to A303 residues) expressed in mammalian expression system assessed as residual activity at 50 nM by Kinomescan method relative to control
[3] = target: LIM domain kinase 2 (Homo sapiens) (UniProt P53671); assay: Inhibition of wild-type human full length LIMK2 (M1 to P638 residues) expressed in bacterial expression system assessed as residual activity at 50 nM by Kinomescan method relative to control
LIM domain kinase 2 (Homo sapiens), sequence (P53671 whole entry, looked up, the tested form may be a part): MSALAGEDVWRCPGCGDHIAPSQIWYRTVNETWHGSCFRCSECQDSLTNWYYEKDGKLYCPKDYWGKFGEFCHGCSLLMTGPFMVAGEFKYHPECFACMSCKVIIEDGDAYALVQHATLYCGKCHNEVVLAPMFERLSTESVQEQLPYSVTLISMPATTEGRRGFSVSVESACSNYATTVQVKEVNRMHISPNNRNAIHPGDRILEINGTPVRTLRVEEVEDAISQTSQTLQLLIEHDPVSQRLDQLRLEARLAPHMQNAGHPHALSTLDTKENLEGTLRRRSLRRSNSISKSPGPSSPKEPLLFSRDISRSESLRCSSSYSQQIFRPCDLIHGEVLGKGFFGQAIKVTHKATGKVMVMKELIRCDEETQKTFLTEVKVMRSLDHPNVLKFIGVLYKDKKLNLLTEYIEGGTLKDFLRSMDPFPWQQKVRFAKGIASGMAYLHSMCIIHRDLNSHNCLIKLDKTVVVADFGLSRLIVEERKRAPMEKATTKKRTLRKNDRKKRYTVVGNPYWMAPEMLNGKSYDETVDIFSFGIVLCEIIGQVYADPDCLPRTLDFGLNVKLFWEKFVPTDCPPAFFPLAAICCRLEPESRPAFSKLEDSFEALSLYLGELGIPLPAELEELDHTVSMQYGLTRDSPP

[4] = target: Phosphatidylinositol 3-kinase C2 domain-containing subunit gamma (Homo sapiens) (UniProt O75747); assay: Inhibition of wild-type human partial length PI3KC2G (M1 to I1446 residues) expressed in mammalian expression system assessed as residual activity at 50 nM by Kinomescan method relative to control
[5] = target: Tyrosine-protein kinase Blk (Homo sapiens) (UniProt P51451); assay: Inhibition of wild-type human partial length BLK (G211 to L503 residues) expressed in bacterial expression system assessed as residual activity at 50 nM by Kinomescan method relative to control
[6] = target: Mitogen-activated protein kinase kinase kinase 3 (Homo sapiens) (UniProt Q99759); assay: Inhibition of wild-type human partial length MAP3K3 (E320 to Y626 residues) expressed in mammalian expression system assessed as residual activity at 50 nM by Kinomescan method relative to control
Mitogen-activated protein kinase kinase kinase 3 (Homo sapiens), sequence (Q99759 whole entry, the tested form may be a part): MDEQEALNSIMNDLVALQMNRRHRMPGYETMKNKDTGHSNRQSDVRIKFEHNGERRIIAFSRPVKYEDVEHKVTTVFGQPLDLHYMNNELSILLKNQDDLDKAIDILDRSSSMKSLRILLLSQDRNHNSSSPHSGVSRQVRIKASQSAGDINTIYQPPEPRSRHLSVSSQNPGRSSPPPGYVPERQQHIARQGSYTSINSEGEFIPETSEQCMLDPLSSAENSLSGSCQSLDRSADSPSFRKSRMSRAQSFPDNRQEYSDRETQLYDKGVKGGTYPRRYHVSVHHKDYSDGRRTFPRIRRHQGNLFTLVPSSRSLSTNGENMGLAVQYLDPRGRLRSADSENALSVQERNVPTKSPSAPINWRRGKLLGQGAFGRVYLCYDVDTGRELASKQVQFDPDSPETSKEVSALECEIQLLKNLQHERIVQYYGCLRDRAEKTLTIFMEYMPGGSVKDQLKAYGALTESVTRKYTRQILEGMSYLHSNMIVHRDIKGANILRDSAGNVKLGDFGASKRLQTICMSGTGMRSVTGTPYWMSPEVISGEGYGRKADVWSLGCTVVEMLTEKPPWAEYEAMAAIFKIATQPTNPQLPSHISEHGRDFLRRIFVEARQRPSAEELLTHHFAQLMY

[7] = target: Serine/threonine-protein kinase 32A (Homo sapiens) (UniProt Q8WU08); assay: Inhibition of wild-type human full length STK32A (M1 to L396 residues) expressed in mammalian expression system assessed as residual activity at 50 nM by Kinomescan method relative to control
[8] = target: 3-phosphoinositide-dependent protein kinase 1 (Homo sapiens) (UniProt O15530); assay: Inhibition of wild-type human full length PDK1 (M1 to Q556 residues) expressed in bacterial expression system assessed as residual activity at 50 nM by Kinomescan method relative to control
3-phosphoinositide-dependent protein kinase 1 (Homo sapiens), sequence (O15530 whole entry, the tested form may be a part): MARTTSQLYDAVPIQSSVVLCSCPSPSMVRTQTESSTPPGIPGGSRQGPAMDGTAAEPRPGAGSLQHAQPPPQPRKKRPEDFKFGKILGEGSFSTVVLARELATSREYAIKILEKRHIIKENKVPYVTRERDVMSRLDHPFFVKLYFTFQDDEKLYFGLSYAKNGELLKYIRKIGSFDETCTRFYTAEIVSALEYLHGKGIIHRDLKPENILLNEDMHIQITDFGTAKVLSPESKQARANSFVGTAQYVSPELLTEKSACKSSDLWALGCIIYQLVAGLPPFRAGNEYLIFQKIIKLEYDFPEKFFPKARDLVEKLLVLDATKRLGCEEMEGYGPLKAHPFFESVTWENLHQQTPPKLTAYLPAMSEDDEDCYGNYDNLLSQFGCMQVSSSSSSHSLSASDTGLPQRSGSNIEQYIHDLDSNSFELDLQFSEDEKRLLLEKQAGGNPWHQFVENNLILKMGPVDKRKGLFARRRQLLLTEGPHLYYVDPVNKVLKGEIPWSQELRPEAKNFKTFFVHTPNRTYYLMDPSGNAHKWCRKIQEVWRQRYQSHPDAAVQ

[9] = target: MAP/microtubule affinity-regulating kinase 3 (Homo sapiens) (UniProt P27448); assay: Inhibition of wild-type human full length MARK3 (M1 to L729 residues) expressed in bacterial expression system assessed as residual activity at 50 nM by Kinomescan method relative to control
[10] = target: Serine/threonine-protein kinase 32B (Homo sapiens) (UniProt Q9NY57); assay: Inhibition of wild-type human full length YANK2 (M1 to S414 residues) expressed in bacterial expression system assessed as residual activity at 50 nM by Kinomescan method relative to control
[11] = target: SRSF protein kinase 2 (Homo sapiens) (UniProt P78362); assay: Inhibition of wild-type human full length SRPK2 (M1 to S686 residues) expressed in bacterial expression system assessed as residual activity at 50 nM by Kinomescan method relative to control
SRSF protein kinase 2 (Homo sapiens), sequence (P78362 whole entry, looked up, the tested form may be a part): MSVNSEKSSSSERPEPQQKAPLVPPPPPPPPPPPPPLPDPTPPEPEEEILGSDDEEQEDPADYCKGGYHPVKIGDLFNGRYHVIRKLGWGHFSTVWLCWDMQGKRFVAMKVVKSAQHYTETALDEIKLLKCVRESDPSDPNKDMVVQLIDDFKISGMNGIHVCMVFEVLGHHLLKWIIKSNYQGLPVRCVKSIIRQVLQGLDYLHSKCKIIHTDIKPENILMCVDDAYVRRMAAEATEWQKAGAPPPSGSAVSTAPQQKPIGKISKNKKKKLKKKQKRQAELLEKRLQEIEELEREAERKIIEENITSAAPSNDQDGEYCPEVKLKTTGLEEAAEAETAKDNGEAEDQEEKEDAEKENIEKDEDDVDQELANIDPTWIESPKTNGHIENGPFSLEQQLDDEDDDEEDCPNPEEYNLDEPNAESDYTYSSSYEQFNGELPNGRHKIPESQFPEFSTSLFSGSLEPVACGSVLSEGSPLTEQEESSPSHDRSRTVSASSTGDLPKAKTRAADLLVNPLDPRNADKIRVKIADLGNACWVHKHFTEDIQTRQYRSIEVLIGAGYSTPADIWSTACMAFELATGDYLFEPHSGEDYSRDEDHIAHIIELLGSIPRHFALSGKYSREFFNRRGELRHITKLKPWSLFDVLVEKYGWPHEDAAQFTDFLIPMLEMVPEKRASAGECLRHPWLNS

[12] = target: Cyclin-dependent kinase-like 1 (Homo sapiens) (UniProt Q00532); assay: Inhibition of wild-type human full length CDKL1 (M1 to I358 residues) expressed in mammalian expression system assessed as residual activity at 50 nM by Kinomescan method relative to control
[13] = target: Serine/threonine-protein kinase Nek5 (Homo sapiens) (UniProt Q6P3R8); assay: Inhibition of wild-type human partial length NEK5 (M1 to M279 residues) expressed in bacterial expression system assessed as residual activity at 50 nM by Kinomescan method relative to control
Serine/threonine-protein kinase Nek5 (Homo sapiens), sequence (Q6P3R8 whole entry, the tested form may be a part): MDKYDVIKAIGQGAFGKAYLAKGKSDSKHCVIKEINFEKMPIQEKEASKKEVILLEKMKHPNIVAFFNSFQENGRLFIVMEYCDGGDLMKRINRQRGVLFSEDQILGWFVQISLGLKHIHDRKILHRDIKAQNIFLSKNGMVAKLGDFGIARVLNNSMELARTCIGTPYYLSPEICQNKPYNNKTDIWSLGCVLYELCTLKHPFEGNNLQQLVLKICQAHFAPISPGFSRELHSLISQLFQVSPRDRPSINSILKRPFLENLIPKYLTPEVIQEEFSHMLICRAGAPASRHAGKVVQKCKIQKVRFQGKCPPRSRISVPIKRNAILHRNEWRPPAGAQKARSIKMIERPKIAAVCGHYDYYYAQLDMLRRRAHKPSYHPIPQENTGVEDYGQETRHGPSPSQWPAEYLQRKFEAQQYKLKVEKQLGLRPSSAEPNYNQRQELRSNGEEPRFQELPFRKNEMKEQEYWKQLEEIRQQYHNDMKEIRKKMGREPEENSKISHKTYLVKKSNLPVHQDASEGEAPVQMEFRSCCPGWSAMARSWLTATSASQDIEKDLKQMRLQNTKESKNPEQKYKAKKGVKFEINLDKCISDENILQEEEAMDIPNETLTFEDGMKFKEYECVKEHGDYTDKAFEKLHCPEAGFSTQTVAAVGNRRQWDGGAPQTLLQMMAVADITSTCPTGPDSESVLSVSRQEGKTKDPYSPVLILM

[14] = target: Proto-oncogene tyrosine-protein kinase Src (Homo sapiens) (UniProt P12931); assay: Inhibition of wild-type human partial length SRC (L240 to L536 residues) expressed in bacterial expression system assessed as residual activity at 50 nM by Kinomescan method relative to control
Proto-oncogene tyrosine-protein kinase Src (Homo sapiens), sequence (P12931 2-536 limits assumed): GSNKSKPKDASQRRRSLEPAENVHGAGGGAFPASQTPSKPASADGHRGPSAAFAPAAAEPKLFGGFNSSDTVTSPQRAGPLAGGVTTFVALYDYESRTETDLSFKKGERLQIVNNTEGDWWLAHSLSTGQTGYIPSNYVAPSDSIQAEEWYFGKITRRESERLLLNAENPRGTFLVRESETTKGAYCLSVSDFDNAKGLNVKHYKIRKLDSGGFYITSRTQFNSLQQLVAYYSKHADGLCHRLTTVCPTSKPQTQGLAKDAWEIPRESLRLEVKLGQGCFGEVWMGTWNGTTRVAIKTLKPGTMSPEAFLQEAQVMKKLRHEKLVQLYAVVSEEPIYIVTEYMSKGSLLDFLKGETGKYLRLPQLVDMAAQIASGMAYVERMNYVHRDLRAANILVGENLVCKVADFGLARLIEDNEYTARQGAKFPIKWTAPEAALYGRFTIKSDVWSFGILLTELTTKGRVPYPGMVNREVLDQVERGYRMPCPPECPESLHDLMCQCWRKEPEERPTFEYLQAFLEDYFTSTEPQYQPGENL

[15] = target: Serine/threonine-protein kinase OSR1 (Homo sapiens) (UniProt O95747); assay: Inhibition of wild-type human full length OSR1 (M1 to S527 residues) expressed in mammalian expression system assessed as residual activity at 50 nM by Kinomescan method relative to control
[16] = target: Cyclin-dependent kinase 11B (Homo sapiens) (UniProt P21127); assay: Inhibition of wild-type human partial length CDK11 (M1 to N360 residues) expressed in bacterial expression system assessed as residual activity at 50 nM by Kinomescan method relative to control
[17] = target: Fibroblast growth factor receptor 3 (Homo sapiens) (UniProt P22607); assay: Inhibition of wild-type human partial length FGFR3 (R442 to S771 residues) expressed in bacterial expression system assessed as residual activity at 50 nM by Kinomescan method relative to control
[18] = target: Mitogen-activated protein kinase 14 (Homo sapiens) (UniProt Q16539); assay: Inhibition of wild-type human full length p38-alpha (M1 to S360 residues) expressed in bacterial expression system assessed as residual activity at 50 nM by Kinomescan method relative to control
Mitogen-activated protein kinase 14 (Homo sapiens), sequence (Q16539 whole entry, the tested form may be a part): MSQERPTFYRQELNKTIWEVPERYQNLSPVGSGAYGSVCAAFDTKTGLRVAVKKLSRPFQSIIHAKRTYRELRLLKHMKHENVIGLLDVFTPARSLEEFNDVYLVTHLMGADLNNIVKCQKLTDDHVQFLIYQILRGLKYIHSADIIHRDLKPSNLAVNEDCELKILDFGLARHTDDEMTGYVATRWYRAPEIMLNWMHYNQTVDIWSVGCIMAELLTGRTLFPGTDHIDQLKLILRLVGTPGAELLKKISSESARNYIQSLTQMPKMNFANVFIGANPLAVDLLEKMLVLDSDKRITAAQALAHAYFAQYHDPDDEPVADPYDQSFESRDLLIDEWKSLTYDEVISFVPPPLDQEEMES

[19] = target: Ephrin type-B receptor 1 (Homo sapiens) (UniProt P54762); assay: Inhibition of wild-type human partial length EPHB1 (P589 to T911 residues) expressed in bacterial expression system assessed as residual activity at 50 nM by Kinomescan method relative to control
[20] = target: NT-3 growth factor receptor (Homo sapiens) (UniProt Q16288); assay: Inhibition of wild-type human partial length TRKC (Q531 to G825 residues) expressed in mammalian expression system assessed as residual activity at 50 nM by Kinomescan method relative to control
[21] = target: Ephrin type-B receptor 4 (Homo sapiens) (UniProt P54760); assay: Inhibition of wild-type human partial length EPHB4 (H585 to G892 residues) expressed in bacterial expression system assessed as residual activity at 50 nM by Kinomescan method relative to control
[22] = target: Ephrin type-A receptor 2 (Homo sapiens) (UniProt P29317); assay: Inhibition of wild-type human partial length EPHA2 (T593 to V891 residues) expressed in bacterial expression system assessed as residual activity at 50 nM by Kinomescan method relative to control
[23] = target: Serine/threonine-protein kinase 32C (Homo sapiens) (UniProt Q86UX6); assay: Inhibition of wild-type human partial length YANK3 (M68 to G486 residues) expressed in bacterial expression system assessed as residual activity at 50 nM by Kinomescan method relative to control
[24] = target: Mitogen-activated protein kinase kinase kinase 15 (Homo sapiens) (UniProt Q6ZN16); assay: Inhibition of wild-type human partial length MAP3K15 (T625 to L932 residues) expressed in mammalian expression system assessed as residual activity at 50 nM by Kinomescan method relative to control
[25] = target: Hormonally up-regulated neu tumor-associated kinase (Homo sapiens) (UniProt P57058); assay: Inhibition of wild-type human partial length HUNK (A31 to K354 residues) expressed in bacterial expression system assessed as residual activity at 50 nM by Kinomescan method relative to control
Hormonally up-regulated neu tumor-associated kinase (Homo sapiens), sequence (P57058 whole entry, the tested form may be a part): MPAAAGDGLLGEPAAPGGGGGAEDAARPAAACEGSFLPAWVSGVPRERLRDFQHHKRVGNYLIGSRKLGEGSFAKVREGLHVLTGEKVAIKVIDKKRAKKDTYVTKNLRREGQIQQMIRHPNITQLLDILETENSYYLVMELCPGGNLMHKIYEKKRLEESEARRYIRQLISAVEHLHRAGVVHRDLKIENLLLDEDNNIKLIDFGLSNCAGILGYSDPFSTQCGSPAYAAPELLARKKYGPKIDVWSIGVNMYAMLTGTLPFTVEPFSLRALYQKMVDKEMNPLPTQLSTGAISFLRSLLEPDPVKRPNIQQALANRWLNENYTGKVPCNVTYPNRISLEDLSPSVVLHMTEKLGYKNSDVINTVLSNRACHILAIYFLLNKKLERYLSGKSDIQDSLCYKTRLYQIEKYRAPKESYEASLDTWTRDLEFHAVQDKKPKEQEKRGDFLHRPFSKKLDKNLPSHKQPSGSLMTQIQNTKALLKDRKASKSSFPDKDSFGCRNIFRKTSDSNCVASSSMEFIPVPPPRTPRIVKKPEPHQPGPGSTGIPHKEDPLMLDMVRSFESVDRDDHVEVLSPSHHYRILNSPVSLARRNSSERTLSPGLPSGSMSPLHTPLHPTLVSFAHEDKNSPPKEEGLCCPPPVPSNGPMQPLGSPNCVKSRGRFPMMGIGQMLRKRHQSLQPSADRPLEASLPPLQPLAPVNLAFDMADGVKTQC

For `COc1ccc(-c2cc3c(N[C@@H]4CC[C@](C)(N)C4(C)C)c(C(N)=O)cnn3c2)cn1`, the Activity [1] was 96%, the Activity [2] was 100% and the Activity [3] was 100%. For the same compound, the Activity [4] was 100%, the Activity [5] was 95% and the Activity [6] was 71%. It also gave an Activity [7] of 100%, an Activity [8] of 96% and an Activity [9] of 100%. The Activity [10] was 100%, the Activity [11] was 81% and the Activity [12] was 100%. The Activity [13] was 100%, the Activity [14] was 97% and the Activity [15] was 100%. For the same compound, the Activity [16] was 100%, the Activity [17] was 82% and the Activity [18] was 100%. It also gave an Activity [19] of 88%, an Activity [20] of 100% and an Activity [21] of 96%. It also gave an Activity [22] of 100%, an Activity [23] of 100% and an Activity [24] of 98%. For the same compound, the Activity [25] was 100%.

`CC1(C)[C@H](Nc2c(C(N)=O)cnn3cc(-c4ccccc4)cc23)CC[C@]1(C)N` showed an Activity [1] of 100%, an Activity [2] of 64% and an Activity [3] of 92%. It also gave an Activity [4] of 100%, an Activity [5] of 100% and an Activity [6] of 61%. For the same compound, the Activity [7] was 92%, the Activity [8] was 82% and the Activity [9] was 68%. It also gave an Activity [10] of 100%, an Activity [11] of 95% and an Activity [12] of 97%. It also gave an Activity [13] of 100%, an Activity [14] of 75% and an Activity [15] of 100%. The Activity [16] was 99%, the Activity [17] was 100% and the Activity [18] was 94%. For the same compound, the Activity [19] was 100%, the Activity [20] was 100% and the Activity [21] was 99%. It also gave an Activity [22] of 81%, an Activity [23] of 100% and an Activity [24] of 100%. The Activity [25] was 65%.
